Test results reported in PubChem BioAssay AID1963833 (Molecular Pharmacology Branch, DTP, NCI, 2024).

System: 883617-216-R-J1-PDC complex spheroid viability
Experiment: Anticancer human tumor 883617-216-R-J1-PDC patient-derived bladder carcinoma cell line growth inhibition [POLQ]
Conditions: for IC50: curve of first compound; for viability, T/C: stronger effect = lower value
Summary of the method: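 PDC + HUVEC + MSC complex spheroids; POLQ inhibitors ± partner drugs; top conc. at/near clinical Cmax, else 10 microM (SN-38 1 microM), half-log dilutions; 37 degrees C, 5% CO2.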

[1] = second compound 0.0316 µM, first compound 0.0316 µM
[2] = second compound 0.0316 µM, first compound 0.1 µM
[3] = second compound 0.0316 µM, first compound 0.316 µM
[4] = second compound 0.0316 µM, first compound 1 µM
[5] = second compound 0.1 µM, first compound 0.0316 µM
[6] = second compound 0.1 µM, first compound 0.1 µM
[7] = second compound 0.1 µM, first compound 0.316 µM
[8] = second compound 0.1 µM, first compound 1 µM
[9] = second compound 0.316 µM, first compound 0.0316 µM
[10] = second compound 0.316 µM, first compound 0.1 µM
[11] = second compound 0.316 µM, first compound 0.316 µM
[12] = second compound 0.316 µM, first compound 1 µM
[13] = second compound 1 µM, first compound 0.0316 µM
[14] = second compound 1 µM, first compound 0.1 µM
[15] = second compound 1 µM, first compound 0.316 µM
[16] = second compound 1 µM, first compound 1 µM
[17] = second compound 3.16 µM, first compound 0.0316 µM
[18] = second compound 3.16 µM, first compound 0.1 µM
[19] = second compound 3.16 µM, first compound 0.316 µM
[20] = second compound 3.16 µM, first compound 1 µM
[21] = second compound 10 µM, first compound 0.0316 µM
[22] = second compound 10 µM, first compound 0.1 µM
[23] = second compound 10 µM, first compound 0.316 µM
[24] = second compound 10 µM, first compound 1 µM
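Note: spheroids exposed to compounds for seven days before readout.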
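Throughout, for viability, T/C: 100% = DMSO vehicle control viability.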

## CC(C)n1c(=O)n(C)c2cnc3cc(F)c(-c4ccc(OCCCN5CCCCC5)nc4)cc3c21 + Cc1cccc(N(C)C(=O)C2C(O)CCN2c2nc(C)cc(C(F)(F)F)c2C#N)c1
Second compound 0.0316 µM
  IC50: > 10000 nM
Second compound 0.1 µM
  IC50: > 10000 nM
Second compound 0.316 µM
  IC50: > 10000 nM
Second compound 1 µM
  IC50: > 10000 nM
Second compound 3.16 µM
  IC50: > 10000 nM
Second compound 10 µM
  IC50: > 10000 nM
[1]
  viability, T/C: 105%
[2]
  viability, T/C: 96.2%
[3]
  viability, T/C: 108%
[4]
  viability, T/C: 90%
Second compound 0.0316 µM, first compound 3.16 µM
  viability, T/C: 83.9%
Second compound 0.0316 µM, first compound 10 µM
  viability, T/C: 59.9%
[5]
  viability, T/C: 108%
[6]
  viability, T/C: 111%
[7]
  viability, T/C: 105%
[8]
  viability, T/C: 98.7%
Second compound 0.1 µM, first compound 3.16 µM
  viability, T/C: 91.5%
Second compound 0.1 µM, first compound 10 µM
  viability, T/C: 62%
[9]
  viability, T/C: 107%
[10]
  viability, T/C: 93.6%
[11]
  viability, T/C: 97.2%
[12]
  viability, T/C: 110%
Second compound 0.316 µM, first compound 3.16 µM
  viability, T/C: 92.8%
Second compound 0.316 µM, first compound 10 µM
  viability, T/C: 59%
[13]
  viability, T/C: 95.9%
[14]
  viability, T/C: 108%
[15]
  viability, T/C: 96.1%
[16]
  viability, T/C: 98.7%
Second compound 1 µM, first compound 3.16 µM
  viability, T/C: 96.6%
Second compound 1 µM, first compound 10 µM
  viability, T/C: 59.5%
[17]
  viability, T/C: 100%
[18]
  viability, T/C: 107%
[19]
  viability, T/C: 105%
[20]
  viability, T/C: 108%
Second compound 3.16 µM, first compound 3.16 µM
  viability, T/C: 95.6%
Second compound 3.16 µM, first compound 10 µM
  viability, T/C: 65.3%
[21]
  viability, T/C: 108%
[22]
  viability, T/C: 112%
[23]
  viability, T/C: 114%
[24]
  viability, T/C: 98.3%
Second compound 10 µM, first compound 3.16 µM
  viability, T/C: 105%
Second compound 10 µM, first compound 10 µM
  viability, T/C: 63.4%

## CCc1c2c(nc3ccc(O)cc13)-c1cc3c(c(=O)n1C2)COC(=O)[C@]3(O)CC + Cc1cccc(N(C)C(=O)C2C(O)CCN2c2nc(C)cc(C(F)(F)F)c2C#N)c1
Second compound 0.0316 µM
  IC50: 101 nM
Second compound 0.1 µM
  IC50: 69.4 nM
Second compound 0.316 µM
  IC50: 84.7 nM
Second compound 1 µM
  IC50: 62.7 nM
Second compound 3.16 µM
  IC50: 59.9 nM
Second compound 10 µM
  IC50: 125 nM
Second compound 0.0316 µM, first compound 0.00316 µM
  viability, T/C: 59.4%
Second compound 0.0316 µM, first compound 0.01 µM
  viability, T/C: 58.6%
[1]
  viability, T/C: 52.8%
[2]
  viability, T/C: 52%
[3]
  viability, T/C: 34.2%
[4]
  viability, T/C: 21.2%
Second compound 0.1 µM, first compound 0.00316 µM
  viability, T/C: 71.4%
Second compound 0.1 µM, first compound 0.01 µM
  viability, T/C: 60.8%
[5]
  viability, T/C: 57.9%
[6]
  viability, T/C: 46.9%
[7]
  viability, T/C: 37.7%
[8]
  viability, T/C: 25%
Second compound 0.316 µM, first compound 0.00316 µM
  viability, T/C: 60.1%
Second compound 0.316 µM, first compound 0.01 µM
  viability, T/C: 66.2%
[9]
  viability, T/C: 55%
[10]
  viability, T/C: 49.6%
[11]
  viability, T/C: 32.6%
[12]
  viability, T/C: 17.6%
Second compound 1 µM, first compound 0.00316 µM
  viability, T/C: 65.1%
Second compound 1 µM, first compound 0.01 µM
  viability, T/C: 61.7%
[13]
  viability, T/C: 60.8%
[14]
  viability, T/C: 41.3%
[15]
  viability, T/C: 33.6%
[16]
  viability, T/C: 20.5%
Second compound 3.16 µM, first compound 0.00316 µM
  viability, T/C: 71.6%
Second compound 3.16 µM, first compound 0.01 µM
  viability, T/C: 59.7%
[17]
  viability, T/C: 54.8%
[18]
  viability, T/C: 45.3%
[19]
  viability, T/C: 40.6%
[20]
  viability, T/C: 22.4%
Second compound 10 µM, first compound 0.00316 µM
  viability, T/C: 79.8%
Second compound 10 µM, first compound 0.01 µM
  viability, T/C: 70.5%
[21]
  viability, T/C: 62.1%
[22]
  viability, T/C: 49.1%
[23]
  viability, T/C: 44.9%
[24]
  viability, T/C: 13.5%
